US20240199639A1, “PRETOMANID AMORPHOUS FORM” (THE GLOBAL ALLIANCE FOR TB DRUG DEVELOPMENT, INC., priority 2021, published 2024)
≈ marks a conversion by molar mass, not a printed value. Where two headings read alike, the source gives them in different places.

Columns and labels:
[1] = Induction time of crystallization of PA-824 in presence of HPMCAS; type: physicochemical
[2] = Amorphous solubility of PA-824; type: physicochemical
[3] = type: physicochemical
Description: 10 mL of SGF was added into 8 vials containing each ASD prepared by vacuum drying as described above, then the suspensions were shaken using a thermomixer at 37° C. under 100 rpm, 300 μL of suspensions were withdrawn at 1 h and the pH values were recorded. After that, 10 mL of FaSSIF was added into the suspensions containing SGF, 300 μL of suspensions were withdrawn at 1 h and 3 h, the pH values in 3 h were also recorded. The samples of suspensions were centrifuged in 96-well plates at 3000 rpm for 2 min. The supernatants were diluted with the diluent (ACN/water, 50/50) and analyzed by HPLC. […]

[4] = Supersaturated solubility measurement in FaSSIF with 2% DMSO; type: physicochemical; settings: for solubility kinetic at 16 min: read-out: Measured conc.(μg/mL)
Description: Then 20 μL of each DMSO stock solution was added to FaSSIF at 1:49 to make the final DMSO concentration at 2% v/v. The samples were stirred at room temperature for 16 min, centrifuged and supernatants analyzed by HPLC.

[5] = tested on: Gram-positive and Gram-negative bacteria; settings: cited from earlier work
[6] = Equilibrium solubility of PA-824 in FaSSIF containing 2% DMSO; type: physicochemical; settings: thermodynamic from solid, 25° C.
[7] = Kinetic solubility of nano suspension after lyophilization in FaSSIF at 37° C.; type: physicochemical; settings: thermodynamic from solid, Table 20, FaSSIF
Description: 10 mL of FaSSIF was added into 2 vials containing 2 batches of nano suspension after Lyophilization (equivalent to 2 mg API), then the suspensions were shaken using a thermomixer at 37° C. and 100 rpm, 300 μL of suspensions were withdrawn at 15, 30, 45, 60, 90, 120 and 180 mins. The samples of suspensions were centrifuged at 14000 rpm for 10 min. The supernatants were diluted with the diluent (ACN/water, 50/50) and analyzed by UPLC.

cytochrome P450 = settings: cited from earlier work
[8] = Kinetic solubility of nanospray-dried ASDs in FaSSIF at 37° C.; type: physicochemical; settings: thermodynamic from solid
Description: 10 mL of FASSIF was added into 8 vials containing each ASD prepared before by nanospray drying, respectively, then the suspensions were shaken using a thermomixer at 37° C. under 100 rpm, 300 μL of suspensions were withdrawn at 15, 30, 45, 60, 90, 120 and 180 mins. The samples of suspensions were centrifuged in 96-well plates at 3000 rpm for 5 min. The supernatants were diluted with the diluent (ACN/water, 50/50) and analyzed by HPLC.

[9] = Kinetic solubility of Soluplus ASDs with different drug loadings in FaSSIF at 37° C.; type: physicochemical; settings: thermodynamic from solid, Table 8, FaSSIF
Description: 10 mL of FaSSIF was added into 3 vials containing each ASD (equivalent to 5 mg API) prepared by nanospray drying, respectively, then the suspensions were shaken using a thermomixer at 37° C. under 100 rpm, 300 μL of suspensions were withdrawn at 15, 30, 45, 60, 90, 120 and 180 mins. The samples of suspensions were centrifuged at 3000 rpm for 5 min. The supernatants were diluted with the diluent (ACN/water, 75/25) and analyzed by HPLC.

[10] = Kinetic solubility of HME ASDs in FaSSIF at 37° C.; type: physicochemical; settings: thermodynamic from solid; for solubility at 15 min: read-out: Solubility (μg/mL) 15 min; for solubility at 30 min: read-out: Solubility (μg/mL) 30 min; for solubility at 60 min: read-out: Solubility (μg/mL) 60 min; for solubility at 90 min: read-out: Solubility (μg/mL) 90 min; for solubility at 120 min: read-out: Solubility (μg/mL) 120 min; for solubility at 180 min: read-out: Solubility (μg/mL) 180 min
Description: 10 mL of FaSSIF was added into 4 vials containing each ASD (equivalent to 5mg API) prepared by Hot melt extrusion, respectively, then the suspensions were shaken using a thermomixer at 37° C. under 100 rpm, 300 μL of suspensions were withdrawn at 15, 30, 45, 60, 90, 120 and 180 mins. The samples of suspensions were centrifuged at 14000 rpm for 10 min. The supernatants were diluted with the diluent (ACN/water, 50/50) and analyzed by UPLC.
The milled ASD products were sieved with 60 mesh sieve, and kinetic solubility test was performed with sieved ASD products as well (Table 14).

[11] = 15 min, read-out: Solubility (μg/mL) 15 min
[12] = 30 min, read-out: Solubility (μg/mL) 30 min
[13] = 45 min, read-out: Solubility (μg/mL) 45 min
[14] = 60 min, read-out: Solubility (μg/mL) 60 min
[15] = 90 min, read-out: Solubility (μg/mL) 90 min
[16] = 180 min, read-out: Solubility (μg/mL) 180 min

In the case of `O=[N+]([O-])c1cn2c(n1)OC[C@@H](OCc1ccc(OC(F)(F)F)cc1)C2` [PA-824, (6S)-2-nitro-6-{[4-(trifluoromethoxy)benzyl]oxy}-6,7-dihydro-5H-imidazo[2,1-b][1,3]oxazine], the “Induction Time” value ([1]; 160 ug/mL PA-824, FaSSIF V1) is reported as 0.89 ± 0.26 min, the “Induction Time” value ([1]; 160 ug/mL PA-824, FaSSIF V1 + HF (1 mg/mL)) is reported as 77.6 ± 13.6 min and the “Induction Time” value ([1]; 160 ug/mL PA-824, PBS pH 6.5) is reported as 1.39 ± 0.18 min. The “Induction Time” value ([1]; 160 ug/mL PA-824, PBS pH 6.5 + HF (1 mg/mL)) was 43.75 ± 1.34 min, the Induction Time ([1]; PA-824 80 μg/mL, PBS pH 6.5, HPMCAS-HF 10 μg/mL) was “about 77.5 minutes” and the solubility ([2]; aqueous buffer, in PBS) was ~160 µg/mL (≈ 445 µM). The solubility ([2]; in FaSSIF V1) was ~300 µg/mL (≈ 835 µM), the “FaSSIF Conc. (μg/mL) (1 hr)” value ([3]; 1 h) was 23.95 µg/mL and the “SGF Conc. (μg/mL) (1 hr)” value ([3]; 1 h) was 12.46 µg/mL. For the same compound, the “FaSSIF Conc. (μg/mL) (3 hr)” value ([3]; 3 h) was 24.89 µg/mL, the solubility at 16 min ([4]; fassif, kinetic from dmso stock) was 53.3 µg/mL (≈ 148 µM) and the solubility kinetic at 16 min ([4]; fassif, kinetic from dmso stock, target conc. 205.60 μg/mL) was 30.8 µg/mL (≈ 85.8 µM). It also gave a solubility kinetic at 16 min ([4]; fassif, kinetic from dmso stock, target conc. 514.00 μg/mL) of 29.5 µg/mL (≈ 82.1 µM), a solubility kinetic at 16 min ([4]; fassif, kinetic from dmso stock, target conc. 616.80 μg/mL) of 28.7 µg/mL (≈ 79.9 µM) and a solubility kinetic at 16 min ([4]; fassif, kinetic from dmso stock, target conc. 771.00 μg/mL) of 30.3 µg/mL (≈ 84.4 µM). For the same compound, the “Measured conc.(μg/mL)” value ([4]; target conc. 51.40 μg/mL) was 53.08 µg/mL, the “Measured conc.(μg/mL)” value ([4]; target conc. 102.80 μg/mL) was 53.27 µg/mL and the “Measured conc.(μg/mL)” value ([4]; target conc. 411.20 μg/mL) was 32.98 µg/mL. The “Measured conc.(μg/mL)” value ([4]; target conc. 1028.00 μg/mL) was 30.32 µg/mL, the “activity against a broad range of Gram-positive and Gram-negative bacteria” value [5] was “no significant activity” and the solubility thermodynamic at 18 h [6] was 51.4 µg/mL (≈ 143 µM). For the same compound, the solubility at 15 min [7, 11] was 31.7 µg/mL (≈ 88.3 µM), the solubility at 30 min [7, 12] was 31.2 µg/mL (≈ 86.9 µM) and the solubility at 45 min [7, 13] was 32.8 µg/mL (≈ 91.2 µM). The solubility at 60 min [7, 14] was 33.5 µg/mL (≈ 93.3 µM), the solubility at 90 min [7, 15] was 32.6 µg/mL (≈ 90.9 µM) and the solubility at 120 min ([7]; 120 min, read-out: Solubility (μg/mL) 120 min) was 39.6 µg/mL (≈ 110 µM). The solubility at 180 min [7, 16] was 31.6 µg/mL (≈ 87.8 µM), the “cytochrome P450 interactions” value (cytochrome P450) was “no significant cytochrome P450 interactions” and the solubility at 15 min [8, 11] was 22.1 µg/mL (≈ 61.7 µM). The solubility at 30 min [8, 12] was 23.7 µg/mL (≈ 65.9 µM), the solubility at 45 min [8, 13] was 26.1 µg/mL (≈ 72.5 µM) and the solubility at 60 min [8, 14] was 26.3 µg/mL (≈ 73.3 µM). It also gave a solubility at 90 min [8, 15] of 23.6 µg/mL (≈ 65.8 µM), a solubility at 180 min [8, 16] of 24.4 µg/mL (≈ 68 µM) and a solubility at 15 min [9, 11] of 22.1 µg/mL (≈ 61.7 µM). The solubility at 30 min [9, 12] was 23.7 µg/mL (≈ 65.9 µM), the solubility at 45 min [9, 13] was 26.1 µg/mL (≈ 72.5 µM) and the solubility at 60 min [9, 14] was 26.3 µg/mL (≈ 73.3 µM). For the same compound, the solubility at 90 min [9, 15] was 23.6 µg/mL (≈ 65.8 µM), the solubility at 180 min [9, 16] was 24.4 µg/mL (≈ 68 µM) and the solubility at 15 min ([10]; after sieving (60 mesh)) was 31.7 µg/mL (≈ 88.3 µM). It also gave a solubility at 30 min ([10]; after sieving (60 mesh)) of 31.2 µg/mL (≈ 86.9 µM), a solubility at 45 min ([10]; after sieving (60 mesh), 45 min, read-out: Solubility (μg/mL) 45 min) of 32.8 µg/mL (≈ 91.2 µM) and a solubility at 60 min ([10]; after sieving (60 mesh)) of 33.5 µg/mL (≈ 93.3 µM). It also gave a solubility at 90 min ([10]; after sieving (60 mesh)) of 32.6 µg/mL (≈ 90.9 µM), a solubility at 120 min ([10]; after sieving (60 mesh)) of 39.6 µg/mL (≈ 110 µM) and a solubility at 180 min ([10]; after sieving (60 mesh)) of 31.6 µg/mL (≈ 87.8 µM). The solubility at 15 min ([10]; without sieving) was 37.2 µg/mL (≈ 103 µM), the solubility at 30 min ([10]; without sieving) was 41.3 µg/mL (≈ 115 µM) and the solubility at 60 min ([10]; without sieving) was 46.2 µg/mL (≈ 129 µM). It also gave a solubility at 90 min ([10]; without sieving) of 41.3 µg/mL (≈ 115 µM), a solubility at 120 min ([10]; without sieving) of 41.4 µg/mL (≈ 115 µM) and a solubility at 180 min ([10]; without sieving) of 40.7 µg/mL (≈ 113 µM).
